The values that follow come from patent publication US11299482B2, “Salt and crystal form of modified andrographolide compound and preparation method thereof” (HEILONGJIANG ZHENBAODAO PHARMACEUTICAL CO, LTD, priority 2017, dated 2022).

For orientation: inhibition means the drop in the measured response relative to a control, in per cent.

For series [1], the system named is left unilateral pulmonary fibrosis. In words: SD rat model of left unilateral pulmonary fibrosis. The format is in vivo.
The test system of series [2] is IL-2 release from mouse spleen cells. Briefly: Release of IL-2 from anti-CD3 stimulated mouse spleen cells (CBA). Format: cell-based. The note with it: anti-CD3, 24 hours, read-out: Inhibition rate, IL-2 (Th1). Here is the method:
(§1) Evaluate the inhibitory effect of the compound on the release of cytokines involved in the Th1 pathway such as IFN-γ and IL-2 from mouse spleen cells by measuring the levels of cytokines involved in the Th1 pathway such as IFN-γ and IL-2 in the culture supernatant of mouse spleen cells. Cells: spleen cells isolated from the spleens of normal C57BL/6 mice The anti-mouse CD3 antibody diluted to 5 μg/mL with DPBS was added to a 96-well plate at 100 μL/well. The culture plate was allowed to stand at 4° C. overnight; 1) The mice were sacrificed under aseptic conditions, and the spleens were collected and ground in a filter having a pore size of 70 μm. The obtained cell suspension was collected. 2) The cells were added to the wells coated with the anti-mouse CD3 antibody at 50 μL/well, i.e. 1×10^5 cells/well; and meanwhile, the cells were added to un-coated wells in the same amount, as a negative control; The compound was dissolved in DMSO to give a solution of 100 mM, and then the solution was diluted with DMSO to obtain 3 gradients, which were 30 mM, 10 mM, and 3 mM, respectively. For each gradient, 4 μl of the solution was added to 1 ml of culture medium to form a mixture with a concentration of 120 μM, 40 μM, or 12 μM, respectively. […] Then, the supernatant was collected, and the levels of IFN-γ and IL-2 therein were detected by CBA.

For series [3], the system named is IL-6 release from mouse spleen cells. Briefly: LPS-induced release of IL-6 from mouse spleen cells (CBA). Format: cell-based. The note with it: 24 hours, read-out: Inhibition rate, IL-6 (Th1). From the text: (§2) Evaluate the inhibitory effect of the compound on LPS-induced release of cytokines involved in the Th1 pathway such as TNF-α and IL-6 from mouse spleen cells by measuring the levels of the cytokines involved in the Th1 pathway such as TNF-α and IL-6 in the culture supernatant of mouse spleen cells. Cells: spleen cells isolated from the spleens of normal C57BL/6 mice 1) The mice were sacrificed under aseptic conditions, and the spleens were collected and ground in a filter having a pore size of 70 μm. The obtained cell suspension was collected. 6) The cells were added to a 96-well plate (100 μL/well, 1×10^5 cells/well); LPS was formulated with culture medium into a 4 μg/ml solution, and then the solution was added to the cell culture well at 50 μl per well. The compound was dissolved in DMSO to give a solution of 100 mM, and then the solution was diluted with DMSO to obtain 3 gradients, which were 30 mM, 10 mM, and 3 mM, respectively. For each gradient, 4 μl of the solution was added to 1 ml of culture medium to form a mixture with a concentration of 120 μM, 40 μM, or 12 μM, respectively. 50 μl of the mixture was added to a corresponding well to a final concentration of 30 μM, 10 μM, or 3 μM, respectively. […] Then, the supernatant was collected, and the levels of TNF-α and IL-6 therein were detected by CBA.

Series [4] relates to TNF-α release from mouse spleen cells. Briefly: LPS-induced release of TNF-α from mouse spleen cells (CBA). Format: cell-based. The following applies: 24 hours, read-out: Inhibition rate, TNF-α (Th1).
Excerpt: as §2

Series [5] can be described thus: Study on polymorphism of the compound of Formula (II) (stirring in solvent, XRPD). Format: physicochemical. The note with it: stirred at 40° C. for 2 days in the dark. Here is the method: The compound of Formula (II) was dissolved in a corresponding solvent and stirred at 40° C. for 2 days in the dark. The solution was then centrifuged to obtain a precipitate which was dried and subjected to XRPD detection.

Series [6] concerns IL-13 release from mouse spleen cells. Briefly: Release of IL-13 (Th2 pathway) from mouse spleen CD4+ T cells (CBA). The following applies: Th2 induction, 72 hours, read-out: Inhibition rate, IL-13 (Th2). The format is cell-based. As to the method: Evaluate the inhibitory effect of the compound on LPS-induced release of cytokines involved in the Th2 pathway such as IL-13 from mouse spleen cells by measuring the levels of cytokines involved in the Th2 pathway such as IL-13 in the culture supernatant of mouse spleen cells. Cells: CD4+ cells isolated and sorted from the spleens of normal C57BL/6 mice The anti-mouse CD3 antibody diluted to 5 μg/mL with DPBS was added to a 96-well plate at 100 μL/well. The culture plate was allowed to stand at 4° C. overnight; 6) CD4+ T cells were isolated by using the Mouse CD4+ T Cell Isolation Kit, and the isolated cells were adjusted to a concentration of […]; 8) The isolated CD4+ T cells were added to the wells coated with the anti-CD3 antibody at 50 μL/well, i.e. 1×10^5 cells/well; and meanwhile, the CD4+ T cells were added to un-coated wells in the same amount, as a negative control; The mouse anti-IFNγ antibody and anti-IL-12 antibody were simultaneously added to the culture medium both at a concentration of 40 μg/mL, and mouse IL-4 was added thereto at a concentration of 40 ng/mL. An induction solution was prepared and added to the wells that had been plated with cells and coated with anti-CD3 antibody at 50 μL/well. […] Then, the supernatant was collected, and the level of IL-13 therein was detected by CBA.

The subject of series [7] is IFN-γ release from mouse spleen cells. In words: Release of IFN-γ from anti-CD3 stimulated mouse spleen cells (CBA). Format: cell-based. The following applies: anti-CD3, 24 hours, read-out: Inhibition rate, IFN-γ (Th1). As to the method: as §1
Series [8] concerns TGF-β release from mouse peritoneal macrophages. In words: Release of TGF-β from mouse peritoneal macrophages (ELISA). Format: cell-based. The note with it: Peritoneal macrophage, 24 hours, read-out: Inhibition rate, fibrosis factor TGF-β. As to the method: Evaluate the inhibitory effect of the compound on the release of TGF-β from mouse peritoneal macrophages by measuring the level of TGF-β in the culture supernatant of mouse peritoneal macrophages. Cells: Macrophages collected by peritoneal lavage of normal Balb/c mice 7) The macrophages were added to a 48-well plate at 250 μL/well, i.e. 4×10^5 cells/well; 2) A stimulating solution containing TNFα and IL-13 both at a concentration of 80 ng/mL was prepared with serum-free medium, and added to the wells plated with cells at 125 μL/well. Three wells were left without the addition of the stimulating solution and used as a blank control; The compound was dissolved in DMSO to give a solution of 100 mM, and then the solution was diluted with DMSO to obtain 3 gradients, which were 30 mM, 10 mM, and 3 mM, respectively. For each gradient, 4 μl of the solution was added to 1 ml of culture medium to form a mixture with a concentration of 120 μM, 40 μM, or 12 μM, respectively. 125 μl of the mixture was added to a corresponding well to a final concentration of 30 μM, 10 μM, or 3 μM, respectively. Dexamethasone was added as a positive drug to a separate well containing cells at a final concentration of 100 nM. […] Then, the supernatant was collected, and the level of TGF-β therein was detected by ELISA.

The subject of series [9] is IL-6 release from THP-1 cells. Briefly: LPS-induced release of IL-6 from THP-1 cells (CBA). Format: cell-based. The following applies: Homo sapiens, LPS-stimulated THP-1 cells, 24 hours, read-out: Inhibition rate @10 uM (IL-6). As to the method: Evaluate the inhibitory effect of the compound on LPS-induced release of IL-6 from THP-1 cells by measuring the level of IL-6 in the cell culture supernatant.
Cell line: THP-1 cell line
4) THP-1 cells were diluted with culture medium to 5×10^5 cells/mL and the diluted cells were added to a 96-well plate (100 μl/well, […]);
1) The compound was dissolved in DMSO to give a solution of 30 mM, and then the solution was 3-fold diluted with DMSO into 4 gradients, which were 30 mM, 10 mM, 3 mM, and 1 mM, respectively. For each gradient, 4 μl of the solution was added to 1 ml of culture medium to form a mixture with a concentration of 120 uM, 40 uM, 12 uM, or 4 uM, respectively. Then, 50 ul of the mixture was added to a well containing cells to a final concentration of 30 uM, 10 uM, 3 uM, or 1 uM, respectively. Dexamethasone was added as a positive drug to a separate well containing cells at a final concentration of 100 nM.
1 mg/ml of a LPS solution was diluted to 800 ng/ml with culture medium, and the diluted solution was added to the cell culture well at 50 ul per well.
The cell culture plate was placed in a 37° C. incubator and incubated for 24 hours. Then, the supernatant was collected, and the level of IL-6 therein was detected by CBA.

Series [10] in a line: Solid stability test of Crystal Form A under high temperature and high humidity conditions. Format: physicochemical. Here is the method: The vial was sealed with aluminum-foil paper which was punched to generate some small holes to ensure that the sample could fully contact with the ambient air. The vial was placed in a chamber with a constant temperature and humidity of 40° C. and 75%. Samples were placed under the above conditions and tested on day 5 and day 10. The test results were compared with the initial test results as measured on day 0.

The nature of series [11]: Solid physical stability test of Crystal Form A under different temperature, humidity and light conditions. Format: physicochemical. The note with it: Day 10. Here is the method: The vial was sealed with aluminum-foil paper which was punched to generate some small holes to ensure that the sample could fully contact with the ambient air. The 4 samples as prepared were placed under conditions of 25° C./92.5% relative humidity, 60° C., 40° C./75%, and light. The physical stability of the samples on day 10 was examined. […] On day 10, all samples were taken and returned to room temperature. The appearance change of the samples was observed, and the crystal form of the samples was examined by XRPD.

[12] abbreviates: 40° C. and 75% humidity, open, day 5.
[13] abbreviates: 40° C. and 75% humidity, open, day 10.
[14] abbreviates: 25° C./92.5% relative humidity (open).
Where [15] appears, read: 40° C./75% relative humidity (open).
[16] abbreviates: stored at −20° C. in a confined space (control sample).

`C=C1CCC2[C@]3(C)CO[C@@H](C4CCCC4)O[C@@H]3CC[C@@]2(C)[C@@H]1CCOC1CCN(C)CC1.O=C(O)CC(O)(CC(=O)O)C(=O)O` (stereo in doubt) [compound of Formula (II)]: the “Inhibitory effect on IPF” value in series [1] is on record as “significant inhibitory effect”. In addition, the inhibition at 10 µM in series [2] amounted to 78.2%; in series [3], 48%; in [6], 99.9%; in series [7] it was 85.3%; in [8] it was 51%. Further, in [4], the inhibition at 30 µM came out at 40.3%. The Crystal form result in series [5] (Ethanol) and in [5] (Methanol) was “Crystal Form A” each time.
Regarding `C=C1CCC2[C@]3(C)CO[C@@H](C4CCCC4)O[C@@H]3CC[C@@]2(C)[C@@H]1CCOC1CCN(C)CC1` (some centres unmarked) [Compound h], the inhibition at 10 µM in [9] is more than 60%.
For the compound `C=C1CCC2[C@]3(C)CO[C@@H](C4CCCC4)O[C@@H]3CC[C@@]2(C)[C@@H]1CCOC1CCN(C)CC1.O=C(O)CC(O)(CC(=O)O)C(=O)O` (some centres unmarked) [Crystal Form A], the Appearance result in series [10] (setting [12]), in [10] (setting [13]) and in [10] (day 0 (initial)) was “Off-white powder” each time. The Crystal form entry in series [10] (setting [12]), in series [10] (setting [13]), in series [10] (day 0 (initial)), in series [11] (setting [14]), in series [11] (setting [15]) and in [11] (60° C. (open)) was “Crystal Form A” in each case. The Crystal form entry in series [11] (light) and in [11] (setting [16]) was “Crystal Form A” each time. For the same compound, the entries for the “Purity (%)” value in series [10] (setting [12]), in series [10] (setting [13]) and in [10] (day 0 (initial)) were 98.37%, 98.45% and 98.51%, respectively. For the same compound, the entries for the “Total impurities (%)” value in [10] (setting [12]), in series [10] (setting [13]) and in series [10] (day 0 (initial)) were 1.61%, 1.55% and 1.49%, respectively. Moreover, the Characters result in [11] (setting [14]), in series [11] (setting [15]), in series [11] (60° C. (open)), in series [11] (light) and in series [11] (setting [16]) was “Off-white powder” in each case.
